Key:
Details in all cases: synthetic library passage 3, intravenous, relative to wild-type AAV9
[1] = tested on: brain, spinal cord, and DRG of the NHPs; assay: NGS fold enrichment of synthetic library (passage 3) in NHPs, first cross-species screen; assay type: in vivo, cynomolgus macaques (Macaca fascicularis)
How it was run: (§1)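 Passage-3 synthetic capsid library given intravenously […] to NHPs (2-4 years) and BALB/c or C57Bl/6 mice (n=3, 6-8 weeks). After e.g. 28 days, tissue RNA was RT-PCR amplified and NGS-sequenced; values are fold enrichment of each variant relative to wild-type AAV9.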

brain [2] = assay: NGS fold enrichment of synthetic library (passage 3) in BALB/c mice, first cross-species screen; assay type: in vivo
How it was run: as §1

brain [3] = assay: NGS fold enrichment of synthetic library (passage 3) in C57Bl/6 mice, first cross-species screen; assay type: in vivo
How it was run: as §1

[4] = RNA from spinal cord of NHPs, NGS
[5] = RNA from brain of BALB/c mice, NGS
[6] = RNA from brain of C57Bl/6 mice, NGS

Sequence	Fold enrichment over AAV9 in the brain of NHPs ([1]; RNA from brain of NHPs, NGS)	Fold enrichment over AAV9 in the spinal cord of NHPs [1, 4]	Fold enrichment over AAV9 in the brain of Mice (BALB/c) (brain [2]; [5])	Fold enrichment over AAV9 in the brain of Mice (C57Bl/6) (brain [3]; [6])	Fold enrichment over AAV9 in the brain of NHPs ([1]; RNA NGS, brain of NHPs)	Fold enrichment over AAV9 in the spinal cord of NHPs ([1]; RNA NGS, spinal cord of NHPs)	Fold enrichment over AAV9 in the brain of Mice (BALB/c) (brain [2]; RNA NGS, brain of BALB/c mice)	Fold enrichment over AAV9 in the brain of Mice (C57Bl/6) (brain [3]; RNA NGS, brain of C57Bl/6 mice)
GSGQKMWKLDNQQT	1.341 fold	0.000 fold	1.418 fold	0.990 fold				
GSGQKQERAVSKQT	1.277 fold	0.000 fold	0.732 fold	1.174 fold				
GSGQLGLSVTNQQT	1.364 fold	6.906 fold	0.376 fold	1.395 fold				
GSGQLIASVVNQQT					1.005 fold	0.086 fold	0.359 fold	0.197 fold
GSGQLPQSGLNQQT	1.218 fold	1.504 fold	0.318 fold	0.641 fold				
GSGQLPRQMTNQQT	1.376 fold	3.550 fold	0.562 fold	0.400 fold				
GSGQLRSLSTNQQT					1.622 fold	6.855 fold	0.382 fold	1.310 fold
GSGQLSGIGGNQQT					3.266 fold	0.287 fold	0.626 fold	0.993 fold
GSGQLSGTPQNQQT	1.185 fold	1.382 fold	0.643 fold	1.025 fold				
GSGQLSHQSVNQQT					1.898 fold	4.032 fold	0.695 fold	0.720 fold
GSGQLSVPYDNQQT					1.521 fold	0.000 fold	0.111 fold	0.622 fold
GSGQLVLTLQNQQT	1.143 fold	0.000 fold	0.336 fold	0.336 fold				
GSGQLVSGLYNQQT	1.325 fold	0.000 fold	0.733 fold	0.842 fold				
GSGQLVTSGPNQQT					1.669 fold	5.271 fold	0.433 fold	0.964 fold
GSGQMASRESNQQT					2.492 fold	0.300 fold	0.288 fold	0.341 fold
GSGQMGRQAVNQQT					1.554 fold	1.529 fold	0.411 fold	0.535 fold

Sequence	Fold enrichment over AAV9 in the brain of NHPs ([1]; RNA from brain of NHPs, NGS)	Fold enrichment over AAV9 in the spinal cord of NHPs [1, 4]	Fold enrichment over AAV9 in the brain of Mice (BALB/c) (brain [2]; [5])	Fold enrichment over AAV9 in the brain of Mice (C57Bl/6) (brain [3]; [6])	Fold enrichment over AAV9 in the brain of NHPs ([1]; RNA NGS, brain of NHPs)	Fold enrichment over AAV9 in the spinal cord of NHPs ([1]; RNA NGS, spinal cord of NHPs)	Fold enrichment over AAV9 in the brain of Mice (BALB/c) (brain [2]; RNA NGS, brain of BALB/c mice)	Fold enrichment over AAV9 in the brain of Mice (C57Bl/6) (brain [3]; RNA NGS, brain of C57Bl/6 mice)
GSGQMKDLHRNQQT					1.014 fold	1.068 fold	0.506 fold	0.587 fold
GSGQMQPHVQNQQT	1.389 fold	9.381 fold	0.153 fold	0.387 fold				
GSGQMQSAGSNQQT					1.482 fold	0.116 fold	1.128 fold	1.034 fold
GSGQMSDVHGNQQT	1.346 fold	7.172 fold	0.548 fold	0.408 fold				
GSGQMVHTIGNQQT					1.026 fold	1.328 fold	0.430 fold	0.406 fold
GSGQNAGSFPNQQT					1.928 fold	12.575 fold	0.286 fold	1.091 fold
GSGQNAHAKEGQQT					1.108 fold	0.000 fold	1.179 fold	0.875 fold
GSGQNAQQAAAQQT					1.568 fold	4.239 fold	0.604 fold	0.937 fold
GSGQNARLKDNQQT	1.354 fold	2.395 fold	0.938 fold	0.580 fold				
GSGQNAYSSQAQQT	1.201 fold	12.096 fold	0.216 fold	0.629 fold				
GSGQNERHLVLQQT					1.019 fold	5.354 fold	0.150 fold	0.416 fold
GSGQNGGSSNRQQT					1.109 fold	2.594 fold	0.844 fold	1.255 fold
GSGQNGHLSLKQQT					2.362 fold	1.896 fold	0.270 fold	0.718 fold
GSGQNHGLQSGQQT					1.530 fold	4.960 fold	0.779 fold	0.938 fold
GSGQNHGVLSNQQT					2.254 fold	1.603 fold	0.701 fold	1.113 fold

From patent US20260250318A1, “COMPOSITIONS AND METHODS FOR CROSSING THE BLOOD BRAIN BARRIER” (VOYAGER THERAPEUTICS, INC., priority 2022, published 2026)
